The target of data set [1] is Glutamate receptor ionotropic, NMDA 2B (Rattus norvegicus, UniProt Q00960). Description: Displacement of [3H]-ifenprodil from NR2B receptor in rat brain cerebral cortex membranes incubated for 120 mins by liquid scintillation counting method. It counts as cell membranes.
The target of data set [2] is Glutamate receptor ionotropic, NMDA 2B (Mus musculus, UniProt P35438+Q01097). The data set is described as follows: Antagonist activity at mouse NR2B receptor expressed in HEK293 cells co-expressing NR1 subunit assessed as reduction in glutamic acid/glycine-induced calcium ion influx by fluorescence based assay. It counts as cell-based.
Sequence of Glutamate receptor ionotropic, NMDA 2B (Mus musculus, UniProt P35438+Q01097) (Q01097 whole entry, one chain of several): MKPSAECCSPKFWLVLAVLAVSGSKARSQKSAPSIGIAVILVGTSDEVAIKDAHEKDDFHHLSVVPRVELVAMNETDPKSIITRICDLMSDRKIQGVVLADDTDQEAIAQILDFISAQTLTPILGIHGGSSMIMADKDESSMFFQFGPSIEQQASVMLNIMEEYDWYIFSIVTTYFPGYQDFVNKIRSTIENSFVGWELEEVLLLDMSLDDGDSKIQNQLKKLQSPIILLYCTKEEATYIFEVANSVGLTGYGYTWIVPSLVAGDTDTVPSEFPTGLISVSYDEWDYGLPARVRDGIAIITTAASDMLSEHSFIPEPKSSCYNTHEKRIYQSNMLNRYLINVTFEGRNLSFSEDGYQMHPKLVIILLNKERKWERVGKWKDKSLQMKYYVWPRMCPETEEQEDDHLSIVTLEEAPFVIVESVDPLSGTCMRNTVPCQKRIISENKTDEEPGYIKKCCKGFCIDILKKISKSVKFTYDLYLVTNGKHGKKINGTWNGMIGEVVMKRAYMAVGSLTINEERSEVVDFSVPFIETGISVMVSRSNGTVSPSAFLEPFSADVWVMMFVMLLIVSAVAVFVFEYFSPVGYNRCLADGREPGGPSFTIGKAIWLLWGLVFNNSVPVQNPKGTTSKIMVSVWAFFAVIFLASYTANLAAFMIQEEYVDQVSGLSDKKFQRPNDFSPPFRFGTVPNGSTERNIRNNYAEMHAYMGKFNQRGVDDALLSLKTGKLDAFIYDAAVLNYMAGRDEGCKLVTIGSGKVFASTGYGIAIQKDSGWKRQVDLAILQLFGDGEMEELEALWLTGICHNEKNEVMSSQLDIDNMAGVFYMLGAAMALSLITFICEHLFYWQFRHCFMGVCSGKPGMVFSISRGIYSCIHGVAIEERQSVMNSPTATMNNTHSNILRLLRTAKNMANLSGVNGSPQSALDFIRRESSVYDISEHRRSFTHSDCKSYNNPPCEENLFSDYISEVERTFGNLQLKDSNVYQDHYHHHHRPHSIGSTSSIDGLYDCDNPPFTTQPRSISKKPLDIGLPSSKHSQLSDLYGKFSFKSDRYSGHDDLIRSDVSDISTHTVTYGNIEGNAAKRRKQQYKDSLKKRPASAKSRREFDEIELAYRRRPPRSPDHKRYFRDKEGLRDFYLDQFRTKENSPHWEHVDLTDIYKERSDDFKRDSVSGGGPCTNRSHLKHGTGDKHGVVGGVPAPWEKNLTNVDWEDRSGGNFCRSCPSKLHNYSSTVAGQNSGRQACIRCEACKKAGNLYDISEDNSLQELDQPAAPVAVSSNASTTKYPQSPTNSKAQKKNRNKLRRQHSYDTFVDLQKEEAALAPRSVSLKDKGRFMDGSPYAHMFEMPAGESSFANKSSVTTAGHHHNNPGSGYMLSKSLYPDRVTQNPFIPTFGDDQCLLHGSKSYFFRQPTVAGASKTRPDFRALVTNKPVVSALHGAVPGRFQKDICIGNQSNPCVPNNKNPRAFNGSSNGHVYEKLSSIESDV
Data set [3] is described as follows: Total clearance in Sprague-Dawley rat at 0.5 mg/kg, iv dosed via cassette dosing. The class given is ADME, organism-based. The settings on record: in vivo.
A short description of data set [4]: Oral bioavailability in Sprague-Dawley rat at 1 mg/kg dosed via cassette dosing. It counts as ADME, organism-based. To be noted: in vivo.
Data set [5] in a line: […] coefficient, ratio of total drug level in brain to plasma in Sprague-Dawley rat at 0.5 mg/kg, iv dosed via cassette dosing measured after 0.5 hrs. The class given is ADME, organism-based. To be noted: brain and plasma.
In the next data set the test system is Rattus norvegicus. The data set is described as follows: Analgesic activity in rat model of partial sciatic nerve ligation model assessed as increase in pain threshold at 2.5 to 10 mg/kg, po measured after 3 hrs by Von Frey filament test. It counts as functional. To be noted: read-out: MED.
Another data set has as its target hERG (KCNH2) (Homo sapiens, UniProt Q12809). Description: Inhibition of human ERG expressed in HEK293 cells at 1 uM. It counts as cell-based. The settings on record: HEK293 cells expressing human ERG.

Sequence of Glutamate receptor ionotropic, NMDA 2B (Rattus norvegicus, UniProt Q00960) (Q00960 whole entry): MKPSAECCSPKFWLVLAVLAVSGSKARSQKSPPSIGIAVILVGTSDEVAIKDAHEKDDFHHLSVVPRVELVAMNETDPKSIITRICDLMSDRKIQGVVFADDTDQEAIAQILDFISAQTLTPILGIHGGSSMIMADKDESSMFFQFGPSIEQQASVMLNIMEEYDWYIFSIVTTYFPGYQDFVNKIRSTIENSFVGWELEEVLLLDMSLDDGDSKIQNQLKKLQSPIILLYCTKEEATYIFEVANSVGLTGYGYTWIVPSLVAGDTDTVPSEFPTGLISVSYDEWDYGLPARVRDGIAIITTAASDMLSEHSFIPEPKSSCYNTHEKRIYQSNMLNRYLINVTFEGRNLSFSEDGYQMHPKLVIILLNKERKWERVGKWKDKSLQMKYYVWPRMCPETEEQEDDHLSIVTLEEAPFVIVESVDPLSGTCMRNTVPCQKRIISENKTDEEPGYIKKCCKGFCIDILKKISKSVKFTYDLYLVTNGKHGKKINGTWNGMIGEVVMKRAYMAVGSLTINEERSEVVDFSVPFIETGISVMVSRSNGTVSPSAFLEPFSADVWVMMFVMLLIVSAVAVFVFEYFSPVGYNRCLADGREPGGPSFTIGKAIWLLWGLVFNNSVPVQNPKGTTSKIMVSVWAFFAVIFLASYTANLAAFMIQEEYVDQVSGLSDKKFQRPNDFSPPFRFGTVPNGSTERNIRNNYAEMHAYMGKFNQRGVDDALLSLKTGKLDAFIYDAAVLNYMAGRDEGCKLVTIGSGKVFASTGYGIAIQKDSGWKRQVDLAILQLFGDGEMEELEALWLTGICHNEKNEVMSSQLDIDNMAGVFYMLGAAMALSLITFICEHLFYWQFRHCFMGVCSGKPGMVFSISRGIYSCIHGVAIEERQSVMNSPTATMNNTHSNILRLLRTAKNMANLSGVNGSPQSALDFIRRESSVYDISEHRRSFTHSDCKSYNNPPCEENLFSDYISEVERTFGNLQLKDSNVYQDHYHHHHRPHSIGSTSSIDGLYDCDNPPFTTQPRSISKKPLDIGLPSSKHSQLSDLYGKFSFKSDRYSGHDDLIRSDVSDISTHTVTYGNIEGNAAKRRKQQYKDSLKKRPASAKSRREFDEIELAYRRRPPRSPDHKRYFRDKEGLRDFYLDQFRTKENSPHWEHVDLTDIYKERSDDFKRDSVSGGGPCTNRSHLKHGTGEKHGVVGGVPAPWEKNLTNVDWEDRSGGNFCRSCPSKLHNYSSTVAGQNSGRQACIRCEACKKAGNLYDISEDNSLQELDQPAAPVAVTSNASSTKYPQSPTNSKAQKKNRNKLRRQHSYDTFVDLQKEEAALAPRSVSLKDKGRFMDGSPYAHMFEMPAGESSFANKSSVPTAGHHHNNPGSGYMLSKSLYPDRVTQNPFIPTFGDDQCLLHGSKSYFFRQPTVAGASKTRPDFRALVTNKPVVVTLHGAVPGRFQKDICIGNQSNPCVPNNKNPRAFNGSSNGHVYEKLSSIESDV
Sequence of hERG (KCNH2) (Q12809 whole entry): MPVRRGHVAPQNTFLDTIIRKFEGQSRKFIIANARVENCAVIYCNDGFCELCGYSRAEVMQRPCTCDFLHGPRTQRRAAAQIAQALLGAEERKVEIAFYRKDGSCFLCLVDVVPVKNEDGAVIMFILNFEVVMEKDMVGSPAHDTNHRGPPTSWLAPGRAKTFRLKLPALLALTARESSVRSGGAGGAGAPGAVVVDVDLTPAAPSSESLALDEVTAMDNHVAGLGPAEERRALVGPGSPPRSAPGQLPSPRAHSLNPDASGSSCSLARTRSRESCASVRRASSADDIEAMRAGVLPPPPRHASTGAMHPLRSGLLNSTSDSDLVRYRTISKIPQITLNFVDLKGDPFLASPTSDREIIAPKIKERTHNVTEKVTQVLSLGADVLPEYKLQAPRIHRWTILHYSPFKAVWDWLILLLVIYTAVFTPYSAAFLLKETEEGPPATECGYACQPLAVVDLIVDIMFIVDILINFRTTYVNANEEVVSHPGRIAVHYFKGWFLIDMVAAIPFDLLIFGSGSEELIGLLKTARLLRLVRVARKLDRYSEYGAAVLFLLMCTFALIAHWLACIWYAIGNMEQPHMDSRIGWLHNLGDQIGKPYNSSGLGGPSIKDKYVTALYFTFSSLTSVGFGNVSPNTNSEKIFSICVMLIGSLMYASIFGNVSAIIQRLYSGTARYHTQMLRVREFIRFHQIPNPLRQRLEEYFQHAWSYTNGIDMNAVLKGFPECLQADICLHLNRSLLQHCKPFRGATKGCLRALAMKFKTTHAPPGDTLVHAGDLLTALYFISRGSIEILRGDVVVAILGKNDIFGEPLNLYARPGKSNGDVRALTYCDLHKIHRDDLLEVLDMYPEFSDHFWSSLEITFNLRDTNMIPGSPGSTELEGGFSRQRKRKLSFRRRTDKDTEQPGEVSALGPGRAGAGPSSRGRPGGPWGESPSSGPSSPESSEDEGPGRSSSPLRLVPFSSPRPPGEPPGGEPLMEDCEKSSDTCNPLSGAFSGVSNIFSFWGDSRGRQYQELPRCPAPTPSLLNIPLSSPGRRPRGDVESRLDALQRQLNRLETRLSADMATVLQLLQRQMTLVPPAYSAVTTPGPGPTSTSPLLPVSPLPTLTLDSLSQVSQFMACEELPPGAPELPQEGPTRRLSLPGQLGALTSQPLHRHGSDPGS

In turn, `O=C(Nc1ccc2[nH]c(=O)oc2c1)C(=O)N1CCN(c2ccccc2)CC1` showed a 50% inhibitory concentration (IC50) in data set [1] of over 1000 nM.

As for `O=C(c1cc(-c2ccc(=O)[nH]c2)on1)N1CCC(Cc2ccc(Cl)cc2)CC1`, the figures for the 50% inhibitory concentration (IC50) in data set [1] and in data set [2] were 25.1 nM and 10 nM, respectively. In addition, the clearance in data set [3] was 5.4 mL/min/kg. In addition, in data set [4], the bioavailability is 9.3%. Besides, the Kp at 0.5 h in data set [5] is 0.38.

With `O[C@]1(Cc2cc(-c3cn[nH]c3)on2)CC[C@@H](Cc2ccc(C(F)(F)F)cc2)CC1`, the IC50 in data set [1] is 100 nM; in data set [2] it was 12.6 nM. Besides, the clearance in data set [3] turned out to be 4 mL/min/kg. Besides, the bioavailability in data set [4] worked out at 67.5%. Also, in data set [5], the Kp at 0.5 h is 2.66.

Take `O=C1CCc2cc(NC(=O)C(=O)N3CCN(c4ccc(Cl)cc4)CC3)ccc2N1`: the half-inhibitory concentration (IC50) in data set [1] was over 1000 nM.

With `COc1ccc(N2CCN(C(=O)C(=O)Nc3ccc4[nH]c(=O)oc4c3)CC2)cc1`, the concentration for half-maximal inhibition (IC50) is 251 nM in data set [1] and 200 nM in data set [2].

For `O=C(c1cc(-c2cc[nH]n2)on1)N1CCC(Cc2ccccc2)CC1`, the IC50 was 79.4 nM in data set [1] and 50.1 nM in data set [2]. The same compound returned a clearance in data set [3] of 71.6 mL/min/kg. In data set [4], the bioavailability worked out at 0.2%. The Kp at 0.5 h in data set [5] was found to be 3.89.

On to `O=C(Nc1ccc2[nH]c(=O)oc2c1)C(=O)N1CCN(c2ccc(F)c(Cl)c2)CC1`, for which the IC50 was 31.6 nM in data set [1] and 10 nM in data set [2]. Further, in data set [3], the clearance worked out at 18.3 mL/min/kg. Besides, the bioavailability in data set [4] worked out at 24.6%. Further, the Kp at 0.5 h in data set [5] came out at 1.24.

Consider `O=C(Nc1ccc2[nH]c(=O)oc2c1)C(=O)N1CCN(c2cc(F)cc(F)c2)CC1`, for which the IC50 in data set [1] was 158 nM; in data set [2] it was 100 nM.

As to `O=C(Nc1ccc2[nH]c(=O)oc2c1)C(=O)N1CCN(c2ccc(C(F)(F)F)c(F)c2)CC1`, the IC50 in data set [1] was 15.8 nM; in data set [2] it was 1 nM. This compound yielded a clearance in data set [3] of 5.6 mL/min/kg. Further, the bioavailability in data set [4] is 8.7%. Also, the concentration ratio (Kp) at 0.5 h in data set [5] worked out at 0.65.

`C[C@@H]1CN(c2ccc(F)c(F)c2)CCN1C(=O)C(=O)Nc1ccc2[nH]c(=O)oc2c1`: the 50% inhibitory concentration (IC50) in data set [1] was 50.1 nM; in data set [2], 6.31 nM. In addition, the clearance in data set [3] came out at 5.6 mL/min/kg. The bioavailability in data set [4] stood at 118%. Further, in data set [5], the concentration ratio (Kp) at 0.5 h came out at 0.67.

`O=C(Nc1ccc2[nH]c(=O)oc2c1)C(=O)N1CCN(c2ccc(Cl)cc2)CC1` had an IC50 in data set [1] of 15.8 nM. The compound further showed a clearance in data set [3] of 7.2 mL/min/kg. The bioavailability in data set [4] came out at 17.8%. For the same compound, the Kp at 0.5 h in data set [5] is 0.53.

For `C[C@@H]1CN(C(=O)C(=O)Nc2ccc3[nH]c(=O)oc3c2)CCN1c1ccc(Cl)c(F)c1`, the IC50 is 50.1 nM in data set [1] and 3.16 nM in data set [2]. Further, the clearance in data set [3] came out at 6 mL/min/kg. Moreover, in data set [4], the bioavailability was 32%. Moreover, the partition ratio (Kp) at 0.5 h in data set [5] was found to be 1.19. Moreover, the minimal effective dose in the data set with Rattus norvegicus was 2.5 mg/kg. Besides, the inhibition at 1 µM against hERG (KCNH2) was 10%.

`O=C1Cc2cc(NC(=O)C(=O)N3CCN(c4ccc(Cl)cc4)CC3)ccc2N1` had a concentration for half-maximal inhibition (IC50) in data set [1] of over 1000 nM.

For the compound `O=C(c1cc(-c2ccc(=O)[nH]c2)on1)N1CCC(Cc2ccccc2)CC1`, the IC50 in data set [1] and in data set [2] was 63.1 nM in each case. This compound also displayed a clearance in data set [3] of 19.3 mL/min/kg. Also, the bioavailability in data set [4] was determined as 18.4%. Also, the Kp at 0.5 h in data set [5] was 0.37.

For `O=C(Nc1ccc2[nH]c(=O)oc2c1)C(=O)N1CCN(c2ccc(C(F)(F)F)cc2)CC1`, the values for the IC50 in data set [1] and in data set [2] were 25.1 nM and 6.31 nM, respectively. In data set [3], this compound gave a clearance of 15.1 mL/min/kg. Also, the bioavailability in data set [4] came to 24.8%. Moreover, in data set [5], the Kp at 0.5 h is 2.99.

Turning to `C[C@H]1CN(C(=O)C(=O)Nc2ccc3[nH]c(=O)oc3c2)CCN1c1ccc(Cl)cc1`, the IC50 in data set [1] was 631 nM; in data set [2], 100 nM.

`O=C(Nc1ccc2[nH]c(=O)oc2c1)C(=O)N1CCN(Cc2ccc(Cl)cc2)CC1`: the IC50 in data set [1] was 501 nM; in data set [2], 63.1 nM. The compound further gave a clearance in data set [3] of 6.8 mL/min/kg. The bioavailability in data set [4] was determined as 7.4%. For the same compound, the concentration ratio (Kp) at 0.5 h in data set [5] stood at 0.41.

With `C[C@@H]1CN(c2ccc(Cl)c(F)c2)CCN1C(=O)C(=O)Nc1ccc2[nH]c(=O)oc2c1`, the IC50 was 12.6 nM in data set [1] and 2 nM in data set [2]. In data set [3], the clearance came out at 1.37 mL/min/kg. For the same compound, the bioavailability in data set [4] came out at 30.4%. Besides, the Kp at 0.5 h in data set [5] was found to be 0.99. Further, the minimal effective dose in the data set with Rattus norvegicus was 5 mg/kg. In addition, the inhibition at 1 µM on hERG (KCNH2) was 29%.

In the case of `O=C(c1cc(-c2cc[nH]n2)on1)N1CCC(Cc2ccc(F)cc2)CC1`, the IC50 is 79.4 nM in data set [1] and 63.1 nM in data set [2].

In turn, `C[C@H]1CN(c2ccc(Cl)cc2)CCN1C(=O)C(=O)Nc1ccc2[nH]c(=O)oc2c1` had an IC50 in data set [1] of over 1000 nM.

In the case of `O=C(Nc1ccc2[nH]c(=O)oc2c1)C(=O)N1CCN(c2ccc(F)cc2)CC1`, the half-inhibitory concentration (IC50) in data set [1] and in data set [2] was 126 nM in each case. The compound also displayed a clearance in data set [3] of 11.1 mL/min/kg. The bioavailability in data set [4] was found to be 39.3%.

In the case of `C[C@@H]1CN(c2ccc(Cl)cc2)CCN1C(=O)C(=O)Nc1ccc2[nH]c(=O)oc2c1`, the figures for the 50% inhibitory concentration (IC50) in data set [1] and in data set [2] were 31.6 nM and 6.31 nM, respectively. Also, the clearance in data set [3] was found to be 5.4 mL/min/kg. Besides, the bioavailability in data set [4] worked out at 130%. Also, the concentration ratio (Kp) at 0.5 h in data set [5] turned out to be 0.95. The minimal effective dose in the data set on Rattus norvegicus is 10 mg/kg. For the same compound, at hERG (KCNH2), at 1 µM the inhibition was 36%.

Consider `C[C@@H]1CN(C(=O)C(=O)Nc2ccc3[nH]c(=O)oc3c2)CCN1c1ccc(F)c(F)c1`, for which the IC50 was 63.1 nM in data set [1] and 10 nM in data set [2]. Besides, the clearance in data set [3] turned out to be 15.9 mL/min/kg. In addition, the bioavailability in data set [4] was 25.3%. Moreover, the Kp at 0.5 h in data set [5] was 1.89.

Take `O=C(c1cc(-c2ccc(=O)[nH]c2)on1)N1CCN(Cc2ccc(Cl)cc2)CC1`: the IC50 in data set [1] was over 1000 nM.

In the case of `COc1ccc(N2CCN(C(=O)C(=O)Nc3ccc4[nH]c(=O)oc4c3)CC2)cc1F`, the IC50 in data set [1] and in data set [2] was 15.8 nM each time. The same compound came in with a clearance in data set [3] of 101 mL/min/kg. Moreover, the bioavailability in data set [4] turned out to be 0.6%. Also, in data set [5], the partition ratio (Kp) at 0.5 h came out at 3.17.

For `C[C@@H]1CN(C(=O)C(=O)Nc2ccc3[nH]c(=O)oc3c2)CCN1c1ccc(Cl)cc1`, the IC50 in data set [1] is 63.1 nM; in data set [2] it was 6.31 nM. In data set [3], this compound came in with a clearance of 15.6 mL/min/kg. In data set [4], the bioavailability turned out to be 52.6%. The Kp at 0.5 h in data set [5] came out at 1.85. Further, the minimal effective dose in the data set with Rattus norvegicus is 10 mg/kg. At hERG (KCNH2), this compound gave an inhibition at 1 µM of 25%.

For the compound `O=C(c1cc(-c2ccc(=O)[nH]c2)on1)N1CCN(c2ccc(Cl)cc2)CC1`, in data set [1], the IC50 is over 1000 nM.

As for `O=C(Nc1ccc2[nH]c(=O)oc2c1)C(=O)N1CCN(c2ccc(F)c(F)c2)CC1`, the results for the half-maximal inhibitory concentration (IC50) in data set [1] and in data set [2] were 20 nM and 10 nM, respectively. Moreover, the clearance in data set [3] stood at 4 mL/min/kg. Besides, the bioavailability in data set [4] worked out at 13%. The partition ratio (Kp) at 0.5 h in data set [5] was 0.82.

Regarding `O=C(c1cc(-c2ccc(=O)[nH]c2)on1)N1CCC(Cc2ccc(F)cc2)CC1`, the figures for the half-inhibitory concentration (IC50) in data set [1] and in data set [2] were 50.1 nM and 39.8 nM, respectively. The compound also showed a clearance in data set [3] of 19.7 mL/min/kg. Moreover, the bioavailability in data set [4] was 18.4%. The Kp at 0.5 h in data set [5] was 0.5.

For the compound `O=C(Nc1ccc2[nH]c(=O)oc2c1)C(=O)N1CCN(c2ccc(Cl)c(F)c2)CC1`, the concentration for half-maximal inhibition (IC50) in data set [1] is 12.6 nM. Moreover, in data set [3], the clearance was determined as 5.6 mL/min/kg. For the same compound, the bioavailability in data set [4] stood at 28.2%. Further, the partition ratio (Kp) at 0.5 h in data set [5] was 0.79.

On to `O=C(c1cc(-c2cc[nH]n2)on1)N1CCC(Cc2ccc(Cl)cc2)CC1`, for which the values for the IC50 in data set [1] and in data set [2] were 63.1 nM and 39.8 nM, respectively. This compound came in with a clearance in data set [3] of 29.2 mL/min/kg. Also, the bioavailability in data set [4] was determined as 0.6%. For the same compound, in data set [5], the Kp at 0.5 h is 3.27.

These data come from ChEMBL document CHEMBL4316607, “Discovery of NR2B-selective antagonists via scaffold hopping and pharmacokinetic profile optimization” (Bioorg Med Chem Lett, 2019).
